Values after ≈ are worked out from the molar mass of the structure shown. Like-named read-outs stand apart in the source and are kept apart here.
Experiments:
[1] = test system: wild-type P. aeruginosa (ATCC 27853); experiment: Time–kill assay; assay type: cell-based; settings: 24 h
Method: Aliquots (50 μL) were taken from the incubation mixture at regular time intervals (t = 0, 3, 6, and 24 h), serially diluted in 0.85% NaCl solution, and plated on BAP. Bacterial colonies were counted, and the data are presented as the means of at least three independent experiments.

[2] = test system: All CPPA (n = 26); experiment: MIC distribution over clinical isolates; assay type: cell-based, P. aeruginosa; settings: Pseudomonas aeruginosa
[3] = test system: PA-044, blaNDM; experiment: MIC / checkerboard with ATM; assay type: cell-based, P. aeruginosa; design: key to Susceptibility category: S: susceptible; I: intermediate; R: resistant
[4] = test system: PA-027, blaIMP; experiment: MIC / checkerboard with ATM; assay type: cell-based, P. aeruginosa; design: key to Susceptibility category: S: susceptible; I: intermediate; R: resistant; settings: for MIC: Pseudomonas aeruginosa
[5] = test system: PA-029, blaIMP; experiment: MIC / checkerboard with ATM; assay type: cell-based, P. aeruginosa; design: key to Susceptibility category: S: susceptible; I: intermediate; R: resistant; settings: for MIC: Pseudomonas aeruginosa
[6] = test system: PA-038, blaNDM; experiment: MIC / checkerboard with ATM; assay type: cell-based, P. aeruginosa; design: key to Susceptibility category: S: susceptible; I: intermediate; R: resistant; settings: PA-038
[7] = test system: PA-039, blaNDM; experiment: MIC / checkerboard with ATM; assay type: cell-based, P. aeruginosa; design: key to Susceptibility category: S: susceptible; I: intermediate; R: resistant; settings: PA-039
[8] = test system: PA-031, blaNDM; experiment: MIC / checkerboard with ATM; assay type: cell-based, P. aeruginosa; design: key to Susceptibility category: S: susceptible; I: intermediate; R: resistant; settings: for MIC: Pseudomonas aeruginosa
[9] = test system: PA-042, blaIMP/NDM; experiment: MIC / checkerboard with ATM; assay type: cell-based, P. aeruginosa; design: key to Susceptibility category: S: susceptible; I: intermediate; R: resistant; settings: for MIC: Pseudomonas aeruginosa

- MIC50 ([2]; read-out: MIC50 of ATM, 5 at 0 mg/L): 16 mg/L (≈ 36.7 µM)
- MIC90 ([2]; read-out: MIC90 of ATM, 5 at 0 mg/L): 32 mg/L (≈ 73.5 µM)
- MIC ([3]; Pseudomonas aeruginosa, read-out: MIC of ATM, PA-044, ATM alone (5 at 0 mg/L)): 16 mg/L
- MIC ([4]; PA-027, Table S2, read-out: MIC value): 32 mg/L
- MIC ([4]; read-out: MIC of ATM, PA-027, ATM alone (5 at 0 mg/L)): 32 mg/L
- MIC ([5]; PA-029, Table S2, read-out: MIC value): 32 mg/L
- MIC ([5]; read-out: MIC of ATM, PA-029, ATM alone (5 at 0 mg/L)): 32 mg/L
- MIC ([8]; PA-031, Table S2, read-out: MIC value): 8 mg/L
- MIC ([8]; read-out: MIC of ATM, PA-031, ATM alone (5 at 0 mg/L)): 4 mg/L
- MIC ([9]; PA-042, Table S2, read-out: MIC value): 2 mg/L
- MIC ([9]; read-out: MIC of ATM, PA-042, ATM alone (5 at 0 mg/L)): 2 mg/L
Compound: C[C@H]1[C@H](NC(=O)/C(=N\OC(C)(C)C(=O)O)c2csc(N)n2)C(=O)N1S(=O)(=O)O [ATM, aztreonam]
- Log CFU/mL, ATM only ([1]; ATM 1/2 MIC): 9.31 Log CFU/mL
- Log CFU/mL, ATM only ([1]; ATM 1/4 MIC): 9.57 Log CFU/mL
- Log CFU/mL, ATM only ([1]; ATM 1 MIC): 8.02 Log CFU/mL
- Log CFU/mL, ATM only ([1]; ATM 2 MIC): 0.17 Log CFU/mL
- Susceptibility to ATM ([3]; PA-044, ATM alone): I (I (intermediate, MIC = 16 mg/L))
- Susceptibility category ([3]; PA-044, Table S2): I
- Susceptibility to ATM ([4]; PA-027, ATM alone): R (R (resistant, MIC ≥ 32 mg/L))
- Susceptibility category ([4]; PA-027, Table S2): R
- Susceptibility to ATM ([5]; PA-029, ATM alone): R (R (resistant, MIC ≥ 32 mg/L))
- Susceptibility category ([5]; PA-029, Table S2): R
- Susceptibility to ATM ([6]; ATM alone): I (I (intermediate, MIC = 16 mg/L))
- Susceptibility category ([6]; Table S2): I
- Susceptibility to ATM ([7]; ATM alone): I (I (intermediate, MIC = 16 mg/L))
- Susceptibility category ([7]; Table S2): R
- Susceptibility to ATM ([8]; PA-031, ATM alone): S (S (sensitive, MIC ≤ 8 mg/L))
- Susceptibility category ([8]; PA-031, Table S2): S
- Susceptibility to ATM ([9]; PA-042, ATM alone): S (S (sensitive, MIC ≤ 8 mg/L))
- Susceptibility category ([9]; PA-042, Table S2): S
